PMC11894153, “c-di-GMP inhibits rRNA methylation and impairs ribosome assembly in the presence of kanamycin” (EMBO Reports, 2025)
Changes are numbered by the printed parent chain.

Key:
RlmI [1] = biological target: T1, RlmI (Escherichia coli, UniProt P75876, K201A); assay: ITC; assay type: binding
T1 construct: pCA24N or pGEX4T-1 plasmid; His tag detected by anti-His; purified
T1 sequence (P75876 1-396 K201A): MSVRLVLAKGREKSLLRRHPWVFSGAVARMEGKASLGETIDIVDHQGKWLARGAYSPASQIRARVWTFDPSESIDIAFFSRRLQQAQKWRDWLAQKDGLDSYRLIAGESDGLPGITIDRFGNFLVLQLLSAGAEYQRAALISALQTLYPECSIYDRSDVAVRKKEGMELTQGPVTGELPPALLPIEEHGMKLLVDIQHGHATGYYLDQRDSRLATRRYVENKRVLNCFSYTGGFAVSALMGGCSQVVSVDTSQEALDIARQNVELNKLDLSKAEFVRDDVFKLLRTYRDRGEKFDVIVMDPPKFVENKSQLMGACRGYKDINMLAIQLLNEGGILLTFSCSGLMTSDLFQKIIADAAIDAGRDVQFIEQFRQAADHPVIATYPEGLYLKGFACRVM

RlmI [2] = biological target: T2, RlmI (Escherichia coli, UniProt P75876, G114A); assay: ITC; assay type: binding
T2 construct: pCA24N or pGEX4T-1 plasmid; His tag detected by anti-His; purified
T2 sequence (P75876 1-396 G114A): T1 sequence (P75876 1-396 K201A) with G114A, A201K

RlmI [3] = biological target: T3, RlmI (Escherichia coli, UniProt P75876, R103A); assay: ITC; assay type: binding
T3 construct: pCA24N or pGEX4T-1 plasmid; His tag detected by anti-His; purified
T3 sequence (P75876 1-396 R103A): T1 sequence (P75876 1-396 K201A) with R103A, A201K

RlmI [4] = biological target: T4, RlmI (Escherichia coli, UniProt P75876); assay: ITC; assay type: binding
T4 construct: pCA24N or pGEX4T-1 plasmid; His tag detected by anti-His; purified
T4 sequence (P75876 1-396): T1 sequence (P75876 1-396 K201A) with A201K

RlmE = biological target: T5, RlmE (Escherichia coli, UniProt P0C0R7); assay: in vitro rRNA methylation, HPLC; assay type: biochemical
T5 construct: pCA24N or pGEX4T-1 plasmid; purified
T5 sequence (P0C0R7 1-209): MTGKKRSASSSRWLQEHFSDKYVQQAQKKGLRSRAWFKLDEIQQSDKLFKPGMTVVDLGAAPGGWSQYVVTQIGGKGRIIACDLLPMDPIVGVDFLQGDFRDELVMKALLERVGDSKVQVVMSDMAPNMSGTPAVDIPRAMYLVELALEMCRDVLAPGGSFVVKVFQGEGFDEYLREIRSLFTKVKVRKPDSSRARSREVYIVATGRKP

RlmI [5] = biological target: T4, RlmI; assay: in vitro rRNA methylation, HPLC; assay type: biochemical
RlmI [6] = biological target: T6, RlmI (Escherichia coli, UniProt P75876, R64A); assay: ITC; assay type: binding
T6 construct: pCA24N or pGEX4T-1 plasmid; His tag detected by anti-His; purified
T6 sequence (P75876 1-396 R64A): T1 sequence (P75876 1-396 K201A) with R64A, A201K

Nc1nc2c(ncn2[C@@H]2O[C@@H]3CO[P@](=O)(O)O[C@H]4[C@@H](O)[C@H](n5cnc6c(=O)[nH]c(N)nc65)O[C@@H]4CO[P@](=O)(O)O[C@H]3[C@H]2O)c(=O)[nH]1 [c-di-GMP] was tested, and the Kd (RlmI [1]) was 401 µM, the Kd (RlmI [2]) was 149 µM and the Kd (RlmI [3]) was 76.5 µM. It also gave a Kd (RlmI [4]) of 1300 nM, an inhibition at 5 µM (RlmE) of 31% and an inhibition at 5 µM (RlmI [5]) of 49%. It also gave a Kd (RlmI [6]) of 102 µM.
